Measured values reported in US20260262643A1, “HERBICIDAL BENZOXAZINES” (FMC CORPORATION, priority 2022, published 2026).

Tests used:
wheat [1] = experiment: Test A postemergence; format: in vivo, Triticum aestivum; details: postemergence, 10 days; for Wheat plant response rating: 125 g ai/ha, 0 to 100 scale, 0 no effect, 100 complete control; for Plant response rating, Wheat: 500 g ai/ha, visual injury, 0 to 100 scale (0 no effect, 100 complete control)
How it was run: (§1)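 Greenhouse pot test, 10 days. Compound (non-phytotoxic solvent, surfactant) sprayed on soil at seeding or on seedlings at one- to two-leaf stage. Visual injury rated 0–100 against untreated plants.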

kochia [2] = experiment: Test A postemergence; format: in vivo, Bassia scoparia; details: postemergence, 10 days; for Kochia plant response rating: 125 g ai/ha, 0 to 100 scale, 0 no effect, 100 complete control; for Plant response rating, Kochia: 500 g ai/ha, visual injury, 0 to 100 scale (0 no effect, 100 complete control)
How it was run: as §1

horseweed = experiment: Test A postemergence; format: in vivo, Erigeron canadensis; details: postemergence, 10 days; for Horseweed plant response rating: 125 g ai/ha, 0 to 100 scale, 0 no effect, 100 complete control; for Plant response rating, Horseweed: 500 g ai/ha, visual injury, 0 to 100 scale (0 no effect, 100 complete control)
How it was run: as §1

foxtail, giant [3] = experiment: Test A preemergence; format: in vivo, Setaria faberi
How it was run: as §1

corn [4] = experiment: Test A preemergence; format: in vivo, Zea mays
How it was run: as §1

ducksalad = experiment: Test B flooded paddy test; format: in vivo, Heteranthera limosa; details: 250 g ai/ha, Flood, 13 days, 0 to 100 scale (0 no effect, 100 complete control)
How it was run: (§2)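 Compound is introduced into paddy water covering soil by 3 cm, treating plants that have reached two leaves. Pots are kept flooded at that depth under greenhouse conditions. Assessment at 13 days gives a 0–100 visual control score.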

soybean [5] = experiment: Test A postemergence; format: in vivo, Glycine max; details: postemergence, 10 days; for Soybean plant response rating: 125 g ai/ha, 0 to 100 scale, 0 no effect, 100 complete control; for Plant response rating, Soybean: 500 g ai/ha, visual injury, 0 to 100 scale (0 no effect, 100 complete control)
How it was run: as §1

ragweed [6] = experiment: Test A preemergence; format: in vivo, Ambrosia artemisiifolia
How it was run: as §1

blackgrass [7] = experiment: Test A preemergence; format: in vivo, Alopecurus myosuroides
How it was run: as §1

blackgrass [8] = experiment: Test A postemergence; format: in vivo, Alopecurus myosuroides; details: postemergence, 10 days; for Blackgrass plant response rating: 125 g ai/ha, 0 to 100 scale, 0 no effect, 100 complete control; for Plant response rating, Blackgrass: 500 g ai/ha, visual injury, 0 to 100 scale (0 no effect, 100 complete control)
How it was run: as §1

ryegrass, Italian [9] = experiment: Test A postemergence; format: in vivo, Lolium multiflorum; details: postemergence, 10 days; for Ryegrass, Italian plant response rating: 125 g ai/ha, 0 to 100 scale, 0 no effect, 100 complete control; for Plant response rating, Ryegrass, Italian: 500 g ai/ha, visual injury, 0 to 100 scale (0 no effect, 100 complete control)
How it was run: as §1

oat, wild [10] = experiment: Test A postemergence; format: in vivo, Avena fatua; details: postemergence, 10 days; for Oat, Wild plant response rating: 125 g ai/ha, 0 to 100 scale, 0 no effect, 100 complete control; for Plant response rating, Oat, Wild: 500 g ai/ha, visual injury, 0 to 100 scale (0 no effect, 100 complete control)
How it was run: as §1

corn [11] = experiment: Test A postemergence; format: in vivo, Zea mays; details: postemergence, 10 days; for Corn plant response rating: 125 g ai/ha, 0 to 100 scale, 0 no effect, 100 complete control; for Plant response rating, Corn: 500 g ai/ha, visual injury, 0 to 100 scale (0 no effect, 100 complete control)
How it was run: as §1

foxtail, giant [12] = experiment: Test A postemergence; format: in vivo, Setaria faberi; details: postemergence, 10 days; for Foxtail, Giant plant response rating: 125 g ai/ha, 0 to 100 scale, 0 no effect, 100 complete control; for Plant response rating, Foxtail, Giant: 500 g ai/ha, visual injury, 0 to 100 scale (0 no effect, 100 complete control)
How it was run: as §1

barnyardgrass = experiment: Test B flooded paddy test; format: in vivo, Echinochloa crus-galli; details: 250 g ai/ha, Flood, 13 days, 0 to 100 scale (0 no effect, 100 complete control)
How it was run: as §2

wheat [13] = experiment: Test A preemergence; format: in vivo, Triticum aestivum
How it was run: as §1

pigweed, palmer [14] = experiment: Test A preemergence; format: in vivo, Amaranthus palmeri
How it was run: as §1

kochia [15] = experiment: Test A preemergence; format: in vivo, Bassia scoparia
How it was run: as §1

goosegrass [16] = experiment: Test A postemergence; format: in vivo, Eleusine indica; details: postemergence, 10 days; for Goosegrass plant response rating: 125 g ai/ha, 0 to 100 scale, 0 no effect, 100 complete control; for Plant response rating, Goosegrass: 500 g ai/ha, visual injury, 0 to 100 scale (0 no effect, 100 complete control)
How it was run: as §1

sedge, umbrella = experiment: Test B flooded paddy test; format: in vivo, Cyperus difformis; details: 250 g ai/ha, Flood, 13 days, 0 to 100 scale (0 no effect, 100 complete control)
How it was run: as §2

oat, wild [17] = experiment: Test A preemergence; format: in vivo, Avena fatua
How it was run: as §1

ryegrass, Italian [18] = experiment: Test A preemergence; format: in vivo, Lolium multiflorum
How it was run: as §1

pigweed, palmer [19] = experiment: Test A postemergence; format: in vivo, Amaranthus palmeri; details: postemergence, 10 days; for Pigweed, Palmer plant response rating: 125 g ai/ha, 0 to 100 scale, 0 no effect, 100 complete control; for Plant response rating, Pigweed, Palmer: 500 g ai/ha, visual injury, 0 to 100 scale (0 no effect, 100 complete control)
How it was run: as §1

ragweed [20] = experiment: Test A postemergence; format: in vivo, Ambrosia artemisiifolia; details: postemergence, 10 days; for Ragweed plant response rating: 125 g ai/ha, 0 to 100 scale, 0 no effect, 100 complete control; for Plant response rating, Ragweed: 500 g ai/ha, visual injury, 0 to 100 scale (0 no effect, 100 complete control)
How it was run: as §1

galium = experiment: Test A postemergence; format: in vivo, Galium aparine; details: postemergence, 10 days; for Galium plant response rating: 125 g ai/ha, 0 to 100 scale, 0 no effect, 100 complete control; for Plant response rating, Galium: 500 g ai/ha, visual injury, 0 to 100 scale (0 no effect, 100 complete control)
How it was run: as §1

rice = experiment: Test B flooded paddy test; format: in vivo, Oryza sativa; details: 250 g ai/ha, Flood, 13 days, 0 to 100 scale (0 no effect, 100 complete control)
How it was run: as §2

goosegrass [21] = experiment: Test A preemergence; format: in vivo, Eleusine indica
How it was run: as §1

soybean [22] = experiment: Test A preemergence; format: in vivo, Glycine max
How it was run: as §1

[23] = 125 g ai/ha, visual injury after 10 days, 0 to 100 scale, 0 is no effect, 100 is complete control
[24] = 500 g ai/ha, 0 to 100 scale (0 no effect, 100 complete control), 10 days

Cc1ccc(-n2cnc(C3CCC3)n2)cc1C(=O)N1C[C@H](C)Oc2c(C)cccc21 [Compound 97]
Wheat plant response rating (wheat [1]): 20 | Plant response rating, Wheat (wheat [1]): 70 | Kochia plant response rating (kochia [2]): 70 | Plant response rating, Kochia (kochia [2]): 100 | Horseweed plant response rating (horseweed): 30 | Plant response rating, Horseweed (horseweed): 90 | Plant response rating, Foxtail, Giant (foxtail, giant [3]; [23]): 100 | Plant response rating, Foxtail, Giant (foxtail, giant [3]; [24]): 100 | Plant response rating, Corn (corn [4]; [23]): 10 | Plant response rating, Corn (corn [4]; [24]): 20 | Plant response rating, Ducksalad (ducksalad): 0 | Soybean plant response rating (soybean [5]): 100 | Plant response rating, Soybean (soybean [5]): 100 | Plant response rating, Ragweed (ragweed [6]; [23]): 30 | Plant response rating, Ragweed (ragweed [6]; [24]): 80 | Plant response rating, Blackgrass (blackgrass [7]; [23]): 10 | Plant response rating, Blackgrass (blackgrass [7]; [24]): 40 | Blackgrass plant response rating (blackgrass [8]): 30 | Plant response rating, Blackgrass (blackgrass [8]): 80 | Ryegrass, Italian plant response rating (ryegrass, Italian [9]): 40 | Plant response rating, Ryegrass, Italian (ryegrass, Italian [9]): 80 | Oat, Wild plant response rating (oat, wild [10]): 30 | Plant response rating, Oat, Wild (oat, wild [10]): 70 | Corn plant response rating (corn [11]): 30 | Plant response rating, Corn (corn [11]): 70 | Foxtail, Giant plant response rating (foxtail, giant [12]): 90 | Plant response rating, Foxtail, Giant (foxtail, giant [12]): 90 | Plant response rating, Barnyardgrass (barnyardgrass): 0 | Plant response rating, Wheat (wheat [13]; [23]): 10 | Plant response rating, Wheat (wheat [13]; [24]): 40 | Plant response rating, Pigweed, Palmer (pigweed, palmer [14]; [23]): 100 | Plant response rating, Pigweed, Palmer (pigweed, palmer [14]; [24]): 100 | Plant response rating, Kochia (kochia [15]; [23]): 60 | Plant response rating, Kochia (kochia [15]; [24]): 80 | Goosegrass plant response rating (goosegrass [16]): 70 | Plant response rating, Goosegrass (goosegrass [16]): 90 | Plant response rating, Sedge, Umbrella (sedge, umbrella): 0 | Plant response rating, Oat, Wild (oat, wild [17]; [23]): 90 | Plant response rating, Oat, Wild (oat, wild [17]; [24]): 90 | Plant response rating, Ryegrass, Italian (ryegrass, Italian [18]; [23]): 70 | Plant response rating, Ryegrass, Italian (ryegrass, Italian [18]; [24]): 100 | Pigweed, Palmer plant response rating (pigweed, palmer [19]): 90 | Plant response rating, Pigweed, Palmer (pigweed, palmer [19]): 100 | Ragweed plant response rating (ragweed [20]): 50 | Plant response rating, Ragweed (ragweed [20]): 80 | Galium plant response rating (galium): 80 | Plant response rating, Galium (galium): 100 | Plant response rating, Rice (rice): 0 | Plant response rating, Goosegrass (goosegrass [21]; [23]): 100 | Plant response rating, Goosegrass (goosegrass [21]; [24]): 100 | Plant response rating, Soybean (soybean [22]; [23]): 40 | Plant response rating, Soybean (soybean [22]; [24]): 100

CCc1ncn(-c2ccc(C)c(C(=O)N3C[C@H](C)Oc4c(C)cccc43)c2)n1 [Compound 98]
Wheat plant response rating (wheat [1]): 80 | Plant response rating, Wheat (wheat [1]): 90 | Kochia plant response rating (kochia [2]): 80 | Plant response rating, Kochia (kochia [2]): 90 | Horseweed plant response rating (horseweed): 30 | Plant response rating, Horseweed (horseweed): 60 | Plant response rating, Foxtail, Giant (foxtail, giant [3]; [23]): 100 | Plant response rating, Foxtail, Giant (foxtail, giant [3]; [24]): 100 | Plant response rating, Corn (corn [4]; [23]): 10 | Plant response rating, Corn (corn [4]; [24]): 30 | Plant response rating, Ducksalad (ducksalad): 65 | Soybean plant response rating (soybean [5]): 100 | Plant response rating, Soybean (soybean [5]): 100 | Plant response rating, Ragweed (ragweed [6]; [23]): 30 | Plant response rating, Ragweed (ragweed [6]; [24]): 90 | Plant response rating, Blackgrass (blackgrass [7]; [23]): 60 | Plant response rating, Blackgrass (blackgrass [7]; [24]): 80 | Blackgrass plant response rating (blackgrass [8]): 70 | Plant response rating, Blackgrass (blackgrass [8]): 90 | Ryegrass, Italian plant response rating (ryegrass, Italian [9]): 70 | Plant response rating, Ryegrass, Italian (ryegrass, Italian [9]): 100 | Oat, Wild plant response rating (oat, wild [10]): 80 | Plant response rating, Oat, Wild (oat, wild [10]): 90 | Corn plant response rating (corn [11]): 50 | Plant response rating, Corn (corn [11]): 90 | Foxtail, Giant plant response rating (foxtail, giant [12]): 90 | Plant response rating, Foxtail, Giant (foxtail, giant [12]): 90 | Plant response rating, Barnyardgrass (barnyardgrass): 45 | Plant response rating, Wheat (wheat [13]; [23]): 50 | Plant response rating, Wheat (wheat [13]; [24]): 60 | Plant response rating, Pigweed, Palmer (pigweed, palmer [14]; [23]): 100 | Plant response rating, Pigweed, Palmer (pigweed, palmer [14]; [24]): 100 | Plant response rating, Kochia (kochia [15]; [23]): 80 | Plant response rating, Kochia (kochia [15]; [24]): 100 | Goosegrass plant response rating (goosegrass [16]): 80 | Plant response rating, Goosegrass (goosegrass [16]): 100 | Plant response rating, Sedge, Umbrella (sedge, umbrella): 90 | Plant response rating, Oat, Wild (oat, wild [17]; [23]): 70 | Plant response rating, Oat, Wild (oat, wild [17]; [24]): 90 | Plant response rating, Ryegrass, Italian (ryegrass, Italian [18]; [23]): 100 | Plant response rating, Ryegrass, Italian (ryegrass, Italian [18]; [24]): 100 | Pigweed, Palmer plant response rating (pigweed, palmer [19]): 90 | Plant response rating, Pigweed, Palmer (pigweed, palmer [19]): 100 | Ragweed plant response rating (ragweed [20]): 60 | Plant response rating, Ragweed (ragweed [20]): 60 | Galium plant response rating (galium): 100 | Plant response rating, Galium (galium): 100 | Plant response rating, Rice (rice): 30 | Plant response rating, Goosegrass (goosegrass [21]; [23]): 100 | Plant response rating, Goosegrass (goosegrass [21]; [24]): 100 | Plant response rating, Soybean (soybean [22]; [23]): 90 | Plant response rating, Soybean (soybean [22]; [24]): 100
